In patent publication US10399940B2, “Substituted pyrrolidines and methods of use” (AbbVie S.à.r.l., priority 2016, dated 2019):
Where two headings read alike, the source gives them in different places.

Biological target: T1, F508delCFTR (Homo sapiens, UniProt P13569, DEL508-508)
T1 construct: expressed in transfected cells; host or cells: CFBE41o- (human lung derived epithelial cell line), doxycycline-inducible expression
Assay: Cell Surface Expression-Horse Radish Peroxidase (CSE-HRP) assay
Format: cell-based
Settings: CFBE41o-F508delCFTR-HRP cells; for Maximum % activity (with co-corrector): with co-corrector (2 μM); for Maximum % activity (with co-corrector) / Maximum % activity (without co-corrector): normalized to on-plate positive control, highest concentration 20 μM
Procedure, shortened: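 CFBE41o- cells expressed F508delCFTR with HRP in the fourth exofacial loop, induced by 0.5 μg/mL doxycycline for 72 h at 37 °C. Compounds alone or with 2 μM co-corrector ran 18–24 h at 33 °C, 8-point 3-fold from 20 μM. Washed-cell luminol luminescence was normalized to DMSO and positive control, fitted sigmoidally for EC50 (three plates).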

[1] = test compound without co-corrector, 18-24 hours at 33° C., read-out: EC50 (without co-corrector)
[2] = with co-corrector (2 μM of 3-[(2R,4R)-4-({[1-(2,2-difluoro-1,3-benzodioxol-5-yl)cyclopropyl]carbonyl}amino)-7-methoxy-3,4-dihydro-2H-chromen-2-yl]benzoic acid), read-out: EC50 (with co-corrector)

T1 sequence (P13569 with tags, fused parts or gaps DEL508-508): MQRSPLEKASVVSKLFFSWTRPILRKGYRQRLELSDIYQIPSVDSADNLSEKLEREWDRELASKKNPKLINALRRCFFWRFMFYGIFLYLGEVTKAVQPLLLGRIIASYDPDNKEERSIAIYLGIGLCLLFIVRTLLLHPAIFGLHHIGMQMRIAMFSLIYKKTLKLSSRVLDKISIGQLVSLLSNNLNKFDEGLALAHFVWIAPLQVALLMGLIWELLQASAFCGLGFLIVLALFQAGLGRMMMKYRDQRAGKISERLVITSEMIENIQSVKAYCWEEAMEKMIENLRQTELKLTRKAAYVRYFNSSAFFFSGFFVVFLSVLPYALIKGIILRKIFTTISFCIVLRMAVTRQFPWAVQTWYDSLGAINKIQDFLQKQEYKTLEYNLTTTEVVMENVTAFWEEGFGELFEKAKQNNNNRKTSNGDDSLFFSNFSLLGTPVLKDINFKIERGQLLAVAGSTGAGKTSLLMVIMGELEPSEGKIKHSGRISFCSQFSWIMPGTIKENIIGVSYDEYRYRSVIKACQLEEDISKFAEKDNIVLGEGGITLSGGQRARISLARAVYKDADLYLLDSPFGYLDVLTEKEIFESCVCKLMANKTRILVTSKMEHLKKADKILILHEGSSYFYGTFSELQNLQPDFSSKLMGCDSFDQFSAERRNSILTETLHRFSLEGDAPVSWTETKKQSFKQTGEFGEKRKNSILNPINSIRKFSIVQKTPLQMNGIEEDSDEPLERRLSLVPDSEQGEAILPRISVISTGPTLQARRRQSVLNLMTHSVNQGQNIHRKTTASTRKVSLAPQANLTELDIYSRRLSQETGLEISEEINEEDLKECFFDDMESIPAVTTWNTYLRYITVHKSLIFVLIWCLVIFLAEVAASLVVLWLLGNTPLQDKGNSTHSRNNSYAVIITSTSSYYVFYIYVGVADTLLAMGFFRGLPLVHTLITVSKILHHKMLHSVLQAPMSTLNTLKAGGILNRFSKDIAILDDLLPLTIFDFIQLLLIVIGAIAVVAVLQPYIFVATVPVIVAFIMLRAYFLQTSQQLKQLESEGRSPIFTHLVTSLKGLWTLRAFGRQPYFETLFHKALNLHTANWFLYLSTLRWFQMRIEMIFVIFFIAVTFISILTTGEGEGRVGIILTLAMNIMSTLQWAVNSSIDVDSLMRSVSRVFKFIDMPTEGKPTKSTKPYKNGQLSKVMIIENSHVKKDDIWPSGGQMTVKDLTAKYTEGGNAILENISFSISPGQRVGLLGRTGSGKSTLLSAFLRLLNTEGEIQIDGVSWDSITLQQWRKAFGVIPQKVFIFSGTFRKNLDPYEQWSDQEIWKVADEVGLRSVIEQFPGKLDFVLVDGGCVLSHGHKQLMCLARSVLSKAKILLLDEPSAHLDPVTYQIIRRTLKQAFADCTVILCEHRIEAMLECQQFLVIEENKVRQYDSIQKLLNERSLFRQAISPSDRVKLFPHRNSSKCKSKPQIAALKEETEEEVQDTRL

Row | Structure (SMILES) | EC50 [1] | EC50 [2] | Maximum % activity (with co-corrector) | Maximum % activity (without co-corrector)
1 | COc1ncc(C(C)(C)C)cc1CO[C@@H]1[C@H](C(C)(C)C)[C@@H](C(=O)O)N(C(=O)OC(C)C)[C@H]1c1ccccc1F [Example 75, (2S,3R,4R,5S)-3-tert-butyl-4-[(5-tert-butyl-2-methoxypyridin-3-yl)methoxy]-5-(2-fluorophenyl)-1-{[(propan-2-yl)oxy]carbonyl}pyrrolidine-2-carboxylic acid] | > 10000 nM | > 10000 nM | + (<150) | + (<100)
2 | COc1ncc(C2CCC2)cc1CO[C@H]1[C@H](C(C)(C)C)[C@@H](C(=O)O)N(C(=O)OC(C)C)[C@H]1c1ccccc1F [Example 77, (2S,3R,4S,5S)-3-tert-butyl-4-[(5-cyclobutyl-2-methoxypyridin-3-yl)methoxy]-5-(2-fluorophenyl)-1-{[(propan-2-yl)oxy]carbonyl}pyrrolidine-2-carboxylic acid] | 1000 to 10000 nM | 1000 to 10000 nM | +++ (≥350) | ++ (≥100 and <200)
3 | COc1ccc(C(F)(F)F)cc1CO[C@H]1[C@H](C(C)(C)C)[C@@H](C(=O)O)N(C(=O)OC(C)C)[C@H]1c1cccnc1OC(C)C [Example 78, (2S,3R,4S,5S)-3-tert-butyl-4-{[2-methoxy-5-(trifluoromethyl)phenyl]methoxy}-1-{[(propan-2-yl)oxy]carbonyl}-5-{2-[(propan-2-yl)oxy]pyridin-3-yl}pyrrolidine-2-carboxylic acid] | 1000 to 10000 nM | 1000 to 10000 nM | +++ (≥350) | ++ (≥100 and <200)
4 | COc1ncc(C(F)(F)F)cc1CO[C@H]1[C@H](C(C)(C)C)[C@@H](C(=O)O)N(C(=O)OC(C)C)[C@H]1c1cccc(Cl)c1 [Example 79, (2S,3R,4S,5S)-3-tert-butyl-5-(3-chlorophenyl)-4-{[2-methoxy-5-(trifluoromethyl)pyridin-3-yl]methoxy}-1-{[(propan-2-yl)oxy]carbonyl}pyrrolidine-2-carboxylic acid] | 1000 to 10000 nM | 1000 to 10000 nM | ++ (≥150 and <350) | + (<100)
5 | COc1ncc(C(C)(C)C)cc1CO[C@H]1[C@H](C(C)(C)C)[C@@H](C(=O)O)N(C(=O)OC(C)C)[C@H]1c1cccc(Cl)c1 [Example 80, (2S,3R,4S,5S)-3-tert-butyl-4-[(5-tert-butyl-2-methoxypyridin-3-yl)methoxy]-5-(3-chlorophenyl)-1-{[(propan-2-yl)oxy]carbonyl}pyrrolidine-2-carboxylic acid] | 1000 to 10000 nM | 1000 to 10000 nM | ++ (≥150 and <350) | + (<100)
6 | COc1ncc(N2CCCCC2)cc1CO[C@H]1[C@H](C(C)(C)C)[C@@H](C(=O)O)N(C(=O)OC(C)C)[C@H]1c1ccccc1 [Example 81, (2S,3R,4S,5S)-3-tert-butyl-4-{[2-methoxy-5-(piperidin-1-yl)pyridin-3-yl]methoxy}-5-phenyl-1-{[(propan-2-yl)oxy]carbonyl}pyrrolidine-2-carboxylic acid] | 1000 to 10000 nM | 1000 to 10000 nM | ++ (≥150 and <350) | + (<100)
7 | COc1ncc(N2CCCC2)cc1CO[C@H]1[C@H](C(C)(C)C)[C@@H](C(=O)O)N(C(=O)OC(C)C)[C@H]1c1ccccc1 [Example 82, (2S,3R,4S,5S)-3-tert-butyl-4-{[2-methoxy-5-(pyrrolidin-1-yl)pyridin-3-yl]methoxy}-5-phenyl-1-{[(propan-2-yl)oxy]carbonyl}pyrrolidine-2-carboxylic acid] | 1000 to 10000 nM | 1000 to 10000 nM | ++ (≥150 and <350) | + (<100)
8 | COc1ncc(C(F)(F)F)cc1CO[C@H]1[C@H](C(C)(C)C)[C@@H](C(=O)O)N(C(=O)OC(C)C)[C@H]1c1ccccc1C [Example 83, (2S,3R,4S,5S)-3-tert-butyl-4-{[2-methoxy-5-(trifluoromethyl)pyridin-3-yl]methoxy}-5-(2-methylphenyl)-1-{[(propan-2-yl)oxy]carbonyl}pyrrolidine-2-carboxylic acid] | 1000 to 10000 nM | < 1000 nM | +++ (≥350) | ++ (≥100 and <200)

The next lines start with the values.

Row | EC50 [1] | EC50 [2] | Maximum % activity (with co-corrector) | Maximum % activity (without co-corrector) | Structure (SMILES)
9 | < 1000 nM | < 1000 nM | +++ (≥350) | + (<100) | COc1ncc(-c2ccc(F)cc2C)cc1CO[C@H]1[C@H](C(C)(C)C)[C@@H](C(=O)O)N(C(=O)OC(C)C)[C@H]1c1ccccc1 [Example 67, (2S,3R,4S,5S)-3-tert-butyl-4-{[5-(4-fluoro-2-methylphenyl)-2-methoxypyridin-3-yl]methoxy}-5-phenyl-1-{[(propan-2-yl)oxy]carbonyl}pyrrolidine-2-carboxylic acid]
10 | < 1000 nM | 1000 to 10000 nM | +++ (≥350) | + (<100) | COc1ncc(-c2ccc(F)cc2F)cc1CO[C@H]1[C@H](C(C)(C)C)[C@@H](C(=O)O)N(C(=O)OC(C)C)[C@H]1c1ccccc1 [Example 68, (2S,3R,4S,5S)-3-tert-butyl-4-{[5-(2,4-difluorophenyl)-2-methoxypyridin-3-yl]methoxy}-5-phenyl-1-{[(propan-2-yl)oxy]carbonyl}pyrrolidine-2-carboxylic acid]
11 | 1000 to 10000 nM | 1000 to 10000 nM | ++ (≥150 and <350) | + (<100) | COc1ncc(C2=CCOCC2)cc1CO[C@H]1[C@H](C(C)(C)C)[C@@H](C(=O)O)N(C(=O)OC(C)C)[C@H]1c1ccccc1 [Example 69, (2S,3R,4S,5S)-3-tert-butyl-4-{[5-(3,6-dihydro-2H-pyran-4-yl)-2-methoxypyridin-3-yl]methoxy}-5-phenyl-1-{[(propan-2-yl)oxy]carbonyl}pyrrolidine-2-carboxylic acid]
12 | 1000 to 10000 nM | 1000 to 10000 nM | ++ (≥150 and <350) | + (<100) | COc1cccc(-c2cnc(OC)c(CO[C@H]3[C@H](C(C)(C)C)[C@@H](C(=O)O)N(C(=O)OC(C)C)[C@H]3c3ccccc3)c2)c1 [Example 70, (2S,3R,4S,5S)-3-tert-butyl-4-{[2-methoxy-5-(3-methoxyphenyl)pyridin-3-yl]methoxy}-5-phenyl-1-{[(propan-2-yl)oxy]carbonyl}pyrrolidine-2-carboxylic acid]
13 | 1000 to 10000 nM | 1000 to 10000 nM | +++ (≥350) | + (<100) | COc1ncc(-c2ccc(C)cc2)cc1CO[C@H]1[C@H](C(C)(C)C)[C@@H](C(=O)O)N(C(=O)OC(C)C)[C@H]1c1ccccc1 [Example 71, (2S,3R,4S,5S)-3-tert-butyl-4-{[2-methoxy-5-(4-methylphenyl)pyridin-3-yl]methoxy}-5-phenyl-1-{[(propan-2-yl)oxy]carbonyl}pyrrolidine-2-carboxylic acid]
14 | 1000 to 10000 nM | 1000 to 10000 nM | +++ (≥350) | + (<100) | COc1nc(C(C)(C)C)ccc1CO[C@H]1[C@H](C(C)(C)C)[C@@H](C(=O)O)N(C(=O)OC(C)C)[C@H]1c1ccccc1 [Example 72, (2S,3R,4S,5S)-3-tert-butyl-4-[(6-tert-butyl-2-methoxypyridin-3-yl)methoxy]-5-phenyl-1-{[(propan-2-yl)oxy]carbonyl}pyrrolidine-2-carboxylic acid]
15 | 1000 to 10000 nM | < 1000 nM | +++ (≥350) | ++ (≥100 and <200) | COc1ncc(C(F)(F)F)cc1CO[C@H]1[C@H](C(C)(C)C)[C@@H](C(=O)O)N(C(=O)OC(C)C)[C@H]1c1ccccc1F [Example 73, (2S,3R,4S,5S)-3-tert-butyl-5-(2-fluorophenyl)-4-{[2-methoxy-5-(trifluoromethyl)pyridin-3-yl]methoxy}-1-{[(propan-2-yl)oxy]carbonyl}pyrrolidine-2-carboxylic acid]
16 | 1000 to 10000 nM | 1000 to 10000 nM | +++ (≥350) | ++ (≥100 and <200) | COc1ncc(C(C)(C)C)cc1CO[C@H]1[C@H](C(C)(C)C)[C@@H](C(=O)O)N(C(=O)OC(C)C)[C@H]1c1ccccc1F [Example 74, (2S,3R,4S,5S)-3-tert-butyl-4-[(5-tert-butyl-2-methoxypyridin-3-yl)methoxy]-5-(2-fluorophenyl)-1-{[(propan-2-yl)oxy]carbonyl}pyrrolidine-2-carboxylic acid]
17 | 1000 to 10000 nM | 1000 to 10000 nM | +++ (≥350) | ++ (≥100 and <200) | COc1ncc(Br)cc1CO[C@H]1[C@H](C(C)(C)C)[C@@H](C(=O)O)N(C(=O)OC(C)C)[C@H]1c1ccccc1F [Example 76, (2S,3R,4S,5S)-4-[(5-bromo-2-methoxypyridin-3-yl)methoxy]-3-tert-butyl-5-(2-fluorophenyl)-1-{[(propan-2-yl)oxy]carbonyl}pyrrolidine-2-carboxylic acid]
